We go through eleven compounds from ChEMBL document CHEMBL1201862, “PubChem BioAssay data set” (2004).

Common to all, as to experiment: NCI tumour cell line growth inhibition, 48 h
Assay [1] deals with NCI-H23.
For assay [2], the system named is Hs-578T.
Assay [3] concerns OVCAR-5.
Assay [4] relates to OVCAR-8.
Assay [5] concerns M14.
Assay [6] relates to BT-549.
Assay [7] deals with NCI-H226.
Assay [8] has as its system IGROV-1.
Assay [9] concerns ACHN.
Assay [10] has as its system PC-3.
Assay [11] deals with A549.
The subject of assay [12] is A498.
Assay [13] has as its system CCRF-CEM.
In assay [14] the test system is KM12.
Assay [15] relates to UACC-257.
The test system of assay [16] is SK-MEL-5.
Assay [17] concerns SR.
Assay [18] relates to NCI-H522.
Assay [19] deals with SK-MEL-2.

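In this assay, cells in 96-well plates receive the compound at five concentrations for 48 hours. Endpoints are linearly interpolated between the surrounding concentrations. GI50 = concentration required for 50% inhibition of growth.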 Activity calls are given as the source filed them. Cut-off read from the data, not from the text of the source: active = GI50 up to about 1.1 µM and inactive = higher.

Take `CC(C)(C)OC(=O)NCCC(N)=S`: the GI50 in [1], in assay [2], in [3], in [4], in assay [5] and in assay [6] was > 100 µM (inactive) each time. In addition, the GI50 in assay [7], in assay [8], in [9], in assay [10], in assay [11] and in assay [12] was > 100 µM (inactive) throughout. Also, the GI50 was 57.5 µM (inactive) in [13]; > 100 µM (inactive) in [14]; > 100 µM (inactive) in [15]; > 100 µM (inactive) in assay [16]; > 100 µM (inactive) in [17].

Regarding `O=C1CC(C(O)CO)CC(=O)N1` (stereo unspecified), the GI50 in assay [1], in assay [2], in [3], in assay [4], in assay [5] and in assay [6] was > 100 µM (inactive) in each case. Moreover, the GI50 in [7], in assay [8], in [9], in assay [10], in assay [11] and in assay [12] was > 100 µM (inactive) each time. For the same compound, the GI50 in [18], in assay [13], in assay [14], in assay [15], in assay [16] and in assay [17] was > 100 µM (inactive) in each case.

With `CC[C@](C)(O)C(=O)O[C@H]1C(=O)O[C@@H]2C[C@H]3C(C)=CC(=O)[C@@H](O)[C@]3(C)[C@H]3[C@@]4(O)OC[C@]32[C@@H]1[C@@H](C)[C@H]4O` [GLAUCARUBINONE], the GI50 in assay [1] was 0.0796 µM (active); in assay [2], 0.167 µM (active); in assay [3], 0.658 µM (active); in [4], 0.0753 µM (active); in assay [5], 0.107 µM (active); in [6], 0.229 µM (active). Also, the GI50 in assay [7] is 0.113 µM (active); in [8] it was 0.05 µM (active); in [9], 0.292 µM (active); in assay [10], 0.458 µM (active); in [11], 1.21 µM (inactive); in assay [12], 0.32 µM (active). Also, the GI50 in [13] is 0.05 µM (active); in [14], 0.0604 µM (active); in assay [15], 0.0675 µM (active); in assay [16], 0.0442 µM (active); in assay [17] it was 0.0453 µM (active); in assay [19], 0.0625 µM (active).

For the compound `COC(=O)c1ccc(C)cc1/C=C1\Cc2ccc(C)cc2C1=O`, the GI50 in [1] was 23.9 µM (inactive); in [2], 23.1 µM (inactive); in assay [3] it was 15.9 µM (inactive); in assay [4] it was 21.2 µM (inactive); in [5] it was 16.1 µM (inactive); in assay [6], 4.91 µM (inactive). Further, the GI50 in assay [7] is 10.1 µM (inactive); in assay [8] it was 10.4 µM (inactive); in assay [9] it was 30.8 µM (inactive); in assay [10], 17.9 µM (inactive); in [11] it was 26.9 µM (inactive); in assay [12], 19.1 µM (inactive). For the same compound, the GI50 in assay [18] is 17.1 µM (inactive); in assay [13], 18.2 µM (inactive); in assay [14] it was 11.6 µM (inactive); in assay [15], 22.6 µM (inactive); in assay [16], 13.9 µM (inactive); in assay [17], 3.9 µM (inactive).

Take `COC(=O)[C@]1(c2cc3ccccc3[nH]2)CC2CN(CC(=O)N(C)OC)C1C1OC(C)(C)OC21` (stereo partly specified): the GI50 in assay [1] is 45.8 µM (inactive); in [2], > 100 µM (inactive); in [3] it was > 100 µM (inactive); in assay [4], 75.3 µM (inactive); in [5], 41.3 µM (inactive); in [6], 43 µM (inactive). Also, the GI50 in assay [7] was 56 µM (inactive); in assay [8], 59.3 µM (inactive); in assay [9], 42.7 µM (inactive); in [10], 42.5 µM (inactive); in assay [11] it was 33.3 µM (inactive); in [12], 24 µM (inactive). For the same compound, the GI50 was > 100 µM (inactive) in assay [18]; 53.8 µM (inactive) in assay [13]; 29.6 µM (inactive) in assay [14]; 32 µM (inactive) in [15]; 31 µM (inactive) in assay [16]; 74.8 µM (inactive) in assay [19].

For `C/C1=C/C(=O)O[C@@H]2C[C@@H](CC[C@H](C)/C=C\C=C\CC1)O[C@@](O)([C@@H]1CSC(=O)N1)C2` [LATRUNCULIN A], the GI50 in assay [1] was 2.14 µM (inactive); in assay [2], 0.114 µM (active); in assay [3], 0.484 µM (active); in [4], 1.41 µM (inactive); in assay [5] it was 0.565 µM (active); in [6], 0.305 µM (active). Further, the GI50 was 0.272 µM (active) in [7]; 0.133 µM (active) in [8]; 0.313 µM (active) in [9]; 0.299 µM (active) in [10]; 0.564 µM (active) in [11]; 0.111 µM (active) in [12]. Further, the GI50 is 0.438 µM (active) in assay [13]; > 10 µM (inactive) in [14]; 2.51 µM (inactive) in assay [15]; 0.444 µM (active) in assay [16]; 0.653 µM (active) in [17]; 5.25 µM (inactive) in assay [19].

With `CCCC(C)c1c(Cl)nc(Cl)nc1Cl` (stereo unspecified), the GI50 in assay [1] was 3.18 µM (inactive); in [2], 9.38 µM (inactive); in assay [3], 21.2 µM (inactive); in [4], 19.1 µM (inactive); in assay [5], 1.71 µM (inactive); in [6], 1.99 µM (inactive). For the same compound, the GI50 in assay [7] was 4.34 µM (inactive); in [8], 14.7 µM (inactive); in assay [9], 4.21 µM (inactive); in assay [10], 14.8 µM (inactive); in assay [11], 10.1 µM (inactive); in assay [18] it was 1.13 µM (inactive). The GI50 was 0.189 µM (active) in assay [13]; 2.47 µM (inactive) in assay [14]; 11 µM (inactive) in assay [15]; 3.41 µM (inactive) in assay [16]; 4.58 µM (inactive) in [17]; 23.9 µM (inactive) in [19].

With `O=C(Nc1nc(C23CC4CC(CC(C4)C2)C3)cs1)c1cc2cc([N+](=O)[O-])ccc2oc1=O`, the GI50 in assay [1] is 77.1 µM (inactive); in assay [2] it was 20.3 µM (inactive); in [3], > 100 µM (inactive); in assay [4], > 100 µM (inactive); in assay [6], 14.3 µM (inactive); in [7], > 100 µM (inactive). For the same compound, the GI50 in [8] was 45.3 µM (inactive); in assay [9] it was 47.3 µM (inactive); in assay [10], 56.9 µM (inactive); in assay [11] it was 70.5 µM (inactive); in [12], 36.3 µM (inactive); in assay [18], > 100 µM (inactive). In addition, the GI50 was 55.6 µM (inactive) in assay [13]; > 100 µM (inactive) in assay [14]; > 100 µM (inactive) in assay [15]; 25.6 µM (inactive) in assay [16]; 68.4 µM (inactive) in assay [17].

Regarding `CS(=O)(=O)CCC(N)P(=O)(O)O` (stereo unspecified), the GI50 in assay [1], in assay [2], in assay [3], in assay [4], in assay [5] and in assay [6] was > 100 µM (inactive) in each case. Moreover, the GI50 in assay [7], in [8], in [9], in assay [10], in [11] and in assay [18] was > 100 µM (inactive) each time. The GI50 in assay [13], in [14], in [15], in assay [16], in assay [17] and in [19] was > 100 µM (inactive) each time.

Take `O=C1NN=C(c2c[nH]c3ccccc23)CC1NCc1ccccc1` (stereo unspecified): the GI50 in assay [1], in assay [2], in [3], in assay [4], in [5] and in assay [6] was > 100 µM (inactive) in each case. In addition, the GI50 in [7] was > 100 µM (inactive); in assay [8], 1.01 µM (active); in assay [9], > 100 µM (inactive); in [10], > 100 µM (inactive); in [11] it was > 100 µM (inactive); in assay [12], > 100 µM (inactive). Besides, the GI50 in assay [18], in assay [13], in assay [14], in assay [15], in [16] and in [19] was > 100 µM (inactive) each time.

With `Cc1ccc(Cc2n[nH]c(=O)[nH]2)cc1`, the GI50 in assay [1], in assay [2], in assay [3], in [4], in [5] and in assay [6] was > 100 µM (inactive) each time. Besides, the GI50 in assay [7], in assay [8], in [9], in [10], in assay [11] and in [12] was > 100 µM (inactive) each time. In addition, the GI50 in assay [13], in [14], in assay [15], in assay [16], in assay [17] and in assay [19] was > 100 µM (inactive) in each case.
